Experimental data reported in patent US7319109B2, “Farnesoid X receptor agonists” (Smith Kline Beecham Corporation, priority 2002, dated 2008).

Target: T1, Human FXRα Ligand Binding Domain (FXRα LBD) (Homo sapiens, UniProt Q96RI1)
T1 construct: polyhistidine (N); made in house; host or cells: E. coli BL21 (DE3), pRSET-A vector
T1 sequence (Q96RI1 222-472 isoform Q96RI1-2): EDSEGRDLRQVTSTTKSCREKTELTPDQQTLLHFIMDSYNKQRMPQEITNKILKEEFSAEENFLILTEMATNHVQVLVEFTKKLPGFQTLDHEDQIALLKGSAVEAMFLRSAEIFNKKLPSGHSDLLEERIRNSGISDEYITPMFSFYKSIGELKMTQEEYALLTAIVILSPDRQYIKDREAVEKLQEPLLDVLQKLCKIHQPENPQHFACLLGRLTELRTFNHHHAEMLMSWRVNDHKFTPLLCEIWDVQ
Assay: FXR Affinity Binding Assay: ligand mediated cofactor peptide (SRC-1 LCD2, 676-700) interaction, time resolved fluorescence
Settings: FXRα LBD-APC / europium labeled SRC-1 peptide, TRF signal, at least 2 hours at room temperature; read-out: Activity (pEC50) (converted)
Description: Determination of a ligand mediated cofactor peptide interaction to quantify ligand binding to the nuclear receptor Farnasoid X Receptor (FXR). The method measures the ability of putative ligands to modulate the interaction between the purified bacterial expressed FXRα (LBD) and a synthetic biotinylated peptide based on residues 676-700 of SRC-1(LCD2, 676-700). […] Detection of the associated complex is measured by time resolved fluorescence (TRF). The purified LBD of FXR is labeled with biotin then mixed with stoichiometric amounts of APC labeled streptavidin (Molecular Probes). The biotinylated peptide is then mixed with a ½ stoichiometric amount of europium labeled streptavidin (Wallac Inc). Each is then blocked with a 5 fold excess of biotin and allowed to equilibrate for 15 min. Equimolar amounts of receptor and peptide are mixed together and allowed to equilibrate for at least 30 min prior to the addition to either a variable or constant concentrations of the sample for which the affinity is to be determined. After equilibration, the time-resolved fluorescent signal is quantitated using a fluorescent plate reader. The affinity of the test compound is estimated from a plot of fluorescence versus concentration of test compound added.
Ligands that promote the complex formation induce a concentration-dependent increase in time-resolved fluorescent signal.
Human FXRα Ligand Binding Domain (FXRα LBD) was expressed in E.coli strain BL21 (DE3) as an amino-terminal polyhistidine tagged fusion protein. Expression was under the control of an IPTG inducible T7 promoter. DNA encoding this recombinant protein was subcloned into the pRSET-A expression vector (Invitrogen). The coding sequence of Human FXRα LBD was derived from Genbank accession number U 68233 (amino acids 222 to 472).
Routinely, 30-40 g cell paste (equivalent to 2-3 liters of the fermentation batch) was resuspended in 200-250 mL TBS, pH 7.2 (25mM Tris, 150 mM NaCl). Cells were lysed by passing 3 times through a French Press and cell debris was removed by centrifugation (30 minutes, 20,000 g, 4° C.). The cleared supernatant was filtered through course pre-filters, and TBS, pH 7.2, containing 500 mM imidazole was added to obtain a final imidazole concentration of 50 mM. This lysate was loaded onto a column (6×8 cm) packed with Sepharose [Ni^++ charged]Chelation resin (Pharmacia) and pre-equilibrated with TBS pH 7.21 50 mM imidazole. After washing to baseline absorbance with equilibration buffer, the column was washed with one column volume of TBS pH 7.2 containing 90 mM imidazole. FXRαLBD was eluted directly with 365 mM imidazole. Column fractions were pooled and dialyzed against TBS, pH 7.2, containing 0.5 mM EDTA and 5 mM DTT. The dialyzed protein sample was concentrated using Centri-prep 10 K (Amicon) and subjected to size exclusion, using a column (3×90 cm) packed with Sepharose S-75 resin (Pharmacia) pre-equilibrated with TBS, pH 7.2, containing 0.5 mM EDTA and 5 mM DTT.
Purified FXRα LBD was desalted/buffer exchanged using PD-10 gel filtration columns into PBS [100 mM NaPhosphate, pH 7.2, 150 mM NaCl]. FXRα LBD was diluted to approximately 10 μM in PBS and five-fold molar excess of NHS-LC-Biotin (Pierce) was added in a minimal volume of PBS. This solution was incubated with gentle mixing for 30 minutes at room temperature. The biotinylation modification reaction was stopped by the addition of 2000× molar excess of Tris-HCl, pH 8. The modified FXRα LBD was dialyzed against 4 buffer changes, each of at least 50 volumes, PBS containing 5 mM DTT, 2 mM EDTA and 2% sucrose.

SMILES: CC(C)c1onc(-c2c(Cl)cccc2Cl)c1COc1ccc(N(C)S(=O)(=O)c2cccc(C(=O)O)c2)cc1 [Example 49, 3-{[(4-{[3-(2,6-Dichlorophenyl)-5-isopropylisoxazol-4-yl]methoxy}phenyl)(methyl)-amino]sulfonyl}benzoic acid]
- EC50: 102 to 1000 nM

SMILES: CC(C)c1onc(-c2c(Cl)cccc2Cl)c1COc1ccc(N(C)C(=O)c2cccc(C(=O)O)c2)c(Cl)c1 [Example 30, 3-[(2-Chloro-4-{[3-(2,6-dichlorophenyl)-5-isopropyl-4-isoxazolyl]methoxy}methylanilino)carbonyl]benzoic acid]
- EC50: 102 to 1000 nM

SMILES: COC(=O)c1cccc(OCc2ccc(OCc3c(-c4ccccc4OC(F)(F)F)noc3C(C)C)cc2C)c1 [Example 84, Methyl 3-{[4-({5-isopropyl-3-[2-(trifluoromethoxy)phenyl]isoxazol-4-yl}methoxy)-2-methylbenzyl]oxy}benzoate]
- EC50: 1020 to 10000 nM

SMILES: CC(C)c1onc(-c2c(Cl)cccc2Cl)c1COc1ccc(N(C)C(=O)c2ccc(C(=O)O)cc2)c(Cl)c1 [Example 31, 4-[(2-Chloro-4-{[3-(2,6-dichlorophenyl)-5-isopropyl-4-isoxazolyl]methoxy}methylanilino)carbonyl]benzoic acid]
- EC50: 102 to 1000 nM

SMILES: Cc1cc(OCc2c(-c3c(Cl)cccc3Cl)noc2C(C)C)ccc1NC(=O)c1ccc(C(=O)O)cc1 [Example 27, 4-[(4-{[3-(2,6-Dichlorophenyl)-5-isopropyl-4-isoxazolyl]methoxy}-2-methylanilino)carbonyl]benzoic acid]
- EC50: 102 to 1000 nM

SMILES: COC(=O)c1cccc(SCc2ccc(OCc3c(-c4ccccc4OC(F)(F)F)noc3C(C)C)cc2C)c1 [Example 89, Methyl 3-{[4-({5-isopropyl-3-[2-(trifluoromethoxy)phenyl]isoxazol-4-yl}methoxy)-2-methylbenzyl]thio}benzoate]
- EC50: 102 to 1000 nM

SMILES: Cc1cc(OCc2c(-c3c(Cl)cccc3Cl)noc2C(C)C)ccc1NS(=O)(=O)c1cccc(C(=O)O)c1 [Example 39, 3-{[(4-{[3-(2,6-Dichlorophenyl)-5-isopropylisoxazol-4-yl]methoxy}-2-methylphenyl)-amino]sulfonyl}benzoic acid]
- EC50: 102 to 1000 nM

SMILES: COC(=O)c1cccc(OCc2ccc(OCc3c(-c4ccccc4OC(F)(F)F)noc3C(C)C)cc2Cl)c1 [Example 83, Methyl 3-{[2-chloro-4-({5-isopropyl-3-[2-(trifluoromethoxy)-phenyl]isoxazol-4-yl}methoxy)benzyl]oxy}benzoate]
- EC50: 102 to 1000 nM

SMILES: CC(C)c1onc(-c2ccccc2OC(F)(F)F)c1COc1ccc(COc2cccc(C(=O)O)c2)c(Cl)c1 [Example 85, 3-{[2-Chloro-4-({5-isopropyl-3-[2-(trifluoromethoxy)phenyl]isoxazol-4-yl}methoxy)-benzyl]oxy}benzoic acid]
- EC50: 102 to 1000 nM

SMILES: CCN(c1ccc(OCc2c(-c3c(Cl)cccc3Cl)noc2C(C)C)cc1)S(=O)(=O)c1ccc(C(=O)O)cc1 [Example 67, 4-{[(4-{[3-(2,6-Dichlorophenyl)-5-isopropylisoxazol-4-yl]methoxy}phenyl)(ethyl)amino]-sulfonyl}benzoic acid]
- EC50: 102 to 1000 nM

SMILES: CC(C)c1onc(-c2c(Cl)cccc2Cl)c1COc1ccc(NS(=O)(=O)c2ccc(C(=O)O)cc2)c(Cl)c1 [Example 56, 4-{[(2-Chloro-4-{[3-(2,6-dichlorophenyl)-5-isopropylisoxazol-4-yl]methoxy}phenyl)-amino]sulfonyl}benzoic acid]
- EC50: 1020 to 10000 nM

SMILES: COC(=O)c1cccc(S(=O)(=O)N(C)c2ccc(OCc3c(-c4ccccc4OC(F)(F)F)noc3C(C)C)cc2C)c1 [Example 71, Methyl 3-{[[4-({5-isopropyl-3-[2-(trifluoromethoxy)phenyl]isoxazol-4-yl}methoxy)-2-methylphenyl](methyl)amino]sulfonyl}benzoate]
- EC50: 102 to 1000 nM

SMILES: Cc1cc(OCc2c(-c3c(Cl)cccc3Cl)noc2C(C)C)ccc1N(C)S(=O)(=O)c1ccc(C(=O)O)cc1 [Example 63, 4-{[(4-{[3-(2,6-Dichlorophenyl)-5-isopropylisoxazol-4-yl]methoxy}-2-methylphenyl)-(methyl)amino]sulfonyl}benzoic acid]
- EC50: 102 to 1000 nM

SMILES: CCN(c1ccc(OCc2c(-c3c(Cl)cccc3Cl)noc2C(C)C)cc1)S(=O)(=O)c1ccc(C(=O)OC)cc1 [Example 61, Methyl 4-{[(4-{[3-(2,6-dichlorophenyl)-5-isopropylisoxazol-4-yl]methoxy}phenyl)-(ethyl)amino]sulfonyl}benzoate]
- EC50: 1020 to 10000 nM

SMILES: COC(=O)c1cccc(S(=O)(=O)N(C)c2ccc(OCc3c(-c4c(Cl)cccc4Cl)noc3C(C)C)cc2Cl)c1 [Example 41, Methyl 3-{[(2-chloro-4-{[3-(2,6-dichlorophenyl)-5-isopropylisoxazol-4-yl]methoxy}-phenyl)(methyl)amino]sulfonyl}benzoate]
- EC50: 102 to 1000 nM

SMILES: COC(=O)c1cccc(COc2ccc(OCc3c(-c4c(Cl)cccc4Cl)noc3C(C)C)cc2Cl)c1 [Example 99, Methyl 3-[(2-chloro-4-{[3-(2,6-dichlorophenyl)-5-isopropylisoxazol-4-yl]methoxy}-phenoxy)methyl]benzoate]
- EC50: 1020 to 10000 nM

SMILES: Cc1cc(OCc2c(-c3c(Cl)cccc3Cl)noc2C(C)C)ccc1N(C)Cc1ccc(C(=O)O)o1 [Example 4, 5-[(4-{[3-(2,6-Dichlorophenyl)-5-isopropyl-4-isoxazolyl]methoxy}-2-dimethylanilino)methyl]-2-furoic acid]
- EC50: 102 to 1000 nM

SMILES: COC(=O)c1cccc(S(=O)(=O)N(C)c2ccc(OCc3c(-c4c(Cl)cccc4Cl)noc3C(C)C)cc2C)c1 [Example 35, Methyl 3-{[(4-{[3-(2,6-dichlorophenyl)-5-isopropylisoxazol-4-yl]methoxy}-2-methylphenyl)(methyl)amino]sulfonyl}benzoate]
- EC50: 102 to 1000 nM

SMILES: Cc1cc(OCc2c(-c3c(Cl)cccc3Cl)noc2C(C)C)ccc1N(C)Cc1ccc(-c2csnn2)cc1 [Example 8, N-(4-{[3-(2,6-Dichlorophenyl)-5-isopropyl-4-isoxazolyl]methoxy}-2-methylphenyl)-N-methyl-N-[4-(1,2,3-thiadiazol-4-yl)benzyl]amine]
- EC50: 102 to 1000 nM

SMILES: CC(C)c1onc(-c2ccccc2OC(F)(F)F)c1COc1ccc(N(C)C(=O)c2cccc(C(=O)O)c2)c(Cl)c1 [Example 34, 3-{[2-Chloro-4-({5-isopropyl-3-[2-(trifluoromethoxy)phenyl]-4-isoxazolyl}methoxy)methylanilino]carbonyl}benzoic acid]
- EC50: 102 to 1000 nM

SMILES: Cc1cc(OCc2c(-c3c(Cl)cccc3Cl)noc2C(C)C)ccc1N(C)Cc1cccc(C(=O)O)c1 [Example 1, 3-{[(4-{[3-(2,6-Dichlorophenyl)-5-isopropylisoxazol-4-yl]methoxy}-2-methylphenyl)(methyl)amino]methyl}benzoic acid]
- EC50: < 100 nM

SMILES: CC(C)c1onc(-c2c(Cl)cccc2Cl)c1COc1ccc(NS(=O)(=O)c2cccc(C(=O)O)c2)cc1 [Example 40, 3-{[(4-{[3-(2,6-Dichlorophenyl)-5-isopropylisoxazol-4-yl]methoxy}phenyl)amino]-sulfonyl}benzoic acid]
- EC50: 1020 to 10000 nM

SMILES: CCN(c1ccc(OCc2c(-c3c(Cl)cccc3Cl)noc2C(C)C)cc1)S(=O)(=O)c1cccc(C(=O)O)c1 [Example 52, 3-{[(4-{[3-(2,6-Dichlorophenyl)-5-isopropylisoxazol-4-yl]methoxy}phenyl)(ethyl)-amino]sulfonyl}benzoic acid]
- EC50: 102 to 1000 nM
